The source of these data is PubChem BioAssay (NCI).

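48-hour exposure; five concentrations; linearly interpolated endpoints. Here, GI50 denotes the concentration required for 50% inhibition of growth. TGI is the concentration that stops growth completely.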

Some test systems named below: M14 melanoma; UACC-257 melanoma; SNB-19 CNS; HS 578T breast; SK-MEL-5 melanoma; ACHN renal; MOLT-4 leukemia; U251 CNS; NCI-H460 lung; SN12C renal.
Common to all, as to test: NCI-60 cell line screen, 48 h

With `CCOC(=O)c1ccc(Nc2sc(C(=O)c3cccc([N+](=O)[O-])c3)c(N)c2C#N)cc1`, the GI50 in the test on M14 melanoma is 0.213 µM; in the test with UACC-257 melanoma, 0.301 µM; in the test with SNB-19 CNS it was 0.338 µM; with HS 578T breast, 0.129 µM; in the test with SK-MEL-5 melanoma, 0.156 µM; in the test with ACHN renal it was 0.0976 µM. The GI50 with MOLT-4 leukemia is 0.203 µM; in the test with U251 CNS, 0.0607 µM; in the test on NCI-H460 lung it was 0.0519 µM; with SN12C renal, 0.497 µM. Besides, the TGI is 23.9 µM with M14 melanoma; above 31.6 µM in the test with UACC-257 melanoma; 18.6 µM with SNB-19 CNS; above 39.1 µM with HS 578T breast; 12.2 µM in the test on SK-MEL-5 melanoma; above 44.2 µM in the test with ACHN renal. The TGI was 6.59 µM with MOLT-4 leukemia, 3.86 µM with U251 CNS, 4.14 µM with NCI-H460 lung and above 46.7 µM in the test with SN12C renal.
For `Nc1ccn(C2CC(O)C(CO)O2)c(=O)n1` (stereo not drawn), the GI50 in the test on M14 melanoma, in the test on UACC-257 melanoma, in the test with SNB-19 CNS, with HS 578T breast, with SK-MEL-5 melanoma and in the test with ACHN renal was above 5000 µM each time. Besides, the GI50 in the test on MOLT-4 leukemia, with U251 CNS, with NCI-H460 lung and in the test on SN12C renal was above 5000 µM in each case. Moreover, the TGI in the test with M14 melanoma, in the test on UACC-257 melanoma, with SNB-19 CNS, in the test with HS 578T breast, with SK-MEL-5 melanoma and in the test with ACHN renal was above 5000 µM throughout. In addition, the TGI with MOLT-4 leukemia, with U251 CNS, in the test with NCI-H460 lung and in the test with SN12C renal was above 5000 µM in each case.
On to `CC1(C)N=C(N)N=C(N)N1c1cccc(CCCCc2ccccc2)c1`, for which the GI50 in the test with M14 melanoma is 0.657 µM; in the test with UACC-257 melanoma it was 0.78 µM; in the test on SNB-19 CNS it was 0.907 µM; with HS 578T breast, 4.57 µM; in the test on SK-MEL-5 melanoma, 0.198 µM; in the test with ACHN renal, 3.22 µM. Also, the GI50 was 0.319 µM with MOLT-4 leukemia, 0.0541 µM in the test with U251 CNS, 0.0493 µM with NCI-H460 lung and 0.427 µM with SN12C renal. In addition, the TGI is 18.6 µM in the test on M14 melanoma; 12.1 µM with UACC-257 melanoma; 16.6 µM in the test on SNB-19 CNS; 28.5 µM in the test on HS 578T breast; 1.36 µM in the test with SK-MEL-5 melanoma; 19.7 µM in the test with ACHN renal. The TGI in the test with MOLT-4 leukemia came out at 8.76 µM; in the test on U251 CNS it was 13.5 µM; in the test with NCI-H460 lung, 11.4 µM; in the test on SN12C renal, 12.3 µM.
Regarding `O=C1c2cc3c(cc2[C@@H]2[C@H]1c1ccc([N+](=O)[O-])cc1C(=O)N2CCCCl)OCO3`, the GI50 in the test with M14 melanoma is below 0.01 µM; in the test on UACC-257 melanoma, below 0.01 µM; in the test with SNB-19 CNS, below 0.0139 µM; in the test on HS 578T breast, 0.174 µM; with SK-MEL-5 melanoma, below 0.01 µM; with ACHN renal, below 0.01 µM. The GI50 with MOLT-4 leukemia is above 100 µM; in the test on U251 CNS, below 0.01 µM; with NCI-H460 lung it was below 0.01 µM; in the test with SN12C renal, below 0.01 µM. Besides, the TGI in the test on M14 melanoma was below 0.01 µM; in the test on SNB-19 CNS, above 100 µM; in the test on HS 578T breast, 61.5 µM; in the test with SK-MEL-5 melanoma, below 0.01 µM; in the test with ACHN renal, below 0.01 µM; with MOLT-4 leukemia it was above 100 µM. Further, the results for the TGI in the test with U251 CNS and with NCI-H460 lung were below 0.0128 µM and 13.6 µM, respectively.
Regarding `C/C1=C\C/C=C(\C)[C@H]2CC(CC/C(C)=C/CC1)[C@@](C)(CO)O2`, the GI50 is 71.7 µM with M14 melanoma; above 100 µM with UACC-257 melanoma; above 100 µM in the test on SNB-19 CNS; above 100 µM in the test with HS 578T breast; 87.3 µM in the test on SK-MEL-5 melanoma; above 100 µM in the test with ACHN renal. The GI50 in the test on MOLT-4 leukemia is 23.5 µM; in the test on U251 CNS, 84.2 µM; in the test with NCI-H460 lung it was 74.4 µM; with SN12C renal, 16.3 µM. Moreover, the TGI in the test with M14 melanoma, with UACC-257 melanoma, in the test with SNB-19 CNS, in the test on HS 578T breast, in the test with SK-MEL-5 melanoma and with ACHN renal was above 100 µM in each case. In addition, the TGI with MOLT-4 leukemia, in the test with U251 CNS, in the test on NCI-H460 lung and in the test with SN12C renal was above 100 µM throughout.
